From ChEMBL document CHEMBL1201862, “PubChem BioAssay data set” (2004)
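Interpolation was linear, between the two tested concentrations surrounding the appropriate level; five concentrations were tested over 48 hours in 96-well plates. GI50: concentration for 50% inhibition of growth.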 Active and inactive are the calls of the source. Rule as the data show it: active = GI50 up to about 1.1 µM and inactive = higher.

How the values were obtained:
Test in all cases: inhibition of tumour cell growth, NCI panel, 48 h
NCI-H23 = test system: NCI-H23
HCC 2998 = test system: HCC 2998
ACHN = test system: ACHN
SK-MEL-5 = test system: SK-MEL-5
HCT-116 = test system: HCT-116
SK-MEL-28 = test system: SK-MEL-28
DU-145 = test system: DU-145
RXF 393 = test system: RXF 393
SK-OV-3 = test system: SK-OV-3
SNB-19 = test system: SNB-19
SN12C = test system: SN12C
HOP-92 = test system: HOP-92
SW-620 = test system: SW-620
Malme-3M = test system: Malme-3M
UO-31 = test system: UO-31
OVCAR-4 = test system: OVCAR-4
T47D = test system: T47D
NCI-H226 = test system: NCI-H226
MCF7 = test system: MCF7
OVCAR-3 = test system: OVCAR-3

Compound	GI50 (NCI-H23)	GI50 (HCC 2998)	GI50 (ACHN)	GI50 (SK-MEL-5)	GI50 (HCT-116)	GI50 (SK-MEL-28)	GI50 (DU-145)	GI50 (RXF 393)	GI50 (SK-OV-3)	GI50 (SNB-19)	GI50 (SN12C)	GI50 (HOP-92)	GI50 (SW-620)	GI50 (Malme-3M)	GI50 (UO-31)	GI50 (OVCAR-4)	GI50 (T47D)	GI50 (NCI-H226)	GI50 (MCF7)	GI50 (OVCAR-3)
COC(=O)/C(C#N)=C(/NCCN)Nc1ccccc1	> 100 µM (inactive)	> 100 µM (inactive)	> 100 µM (inactive)	> 100 µM (inactive)	> 100 µM (inactive)	> 100 µM (inactive)	> 100 µM (inactive)	> 100 µM (inactive)	> 100 µM (inactive)	> 100 µM (inactive)	> 100 µM (inactive)	> 100 µM (inactive)	> 100 µM (inactive)	> 100 µM (inactive)	> 100 µM (inactive)	> 100 µM (inactive)	> 100 µM (inactive)	> 100 µM (inactive)	> 100 µM (inactive)	> 100 µM (inactive)
CN(C)/C=N/S(=O)(=O)c1nn2c(C=O)c(-c3ccccc3)nc2s1	19.7 µM (inactive)	36.1 µM (inactive)	5.65 µM (inactive)	11.5 µM (inactive)	3.26 µM (inactive)	9.2 µM (inactive)	23.4 µM (inactive)	13 µM (inactive)	> 80.5 µM (inactive)	36 µM (inactive)	13.5 µM (inactive)	17.5 µM (inactive)	3.76 µM (inactive)	12.9 µM (inactive)	5.36 µM (inactive)	22.7 µM (inactive)	15.7 µM (inactive)	21.4 µM (inactive)	4.93 µM (inactive)	8.32 µM (inactive)
COc1ccc2c(c1)c1c3c(ccc4ncn2c43)N(CCO)CCN=1	0.191 µM (active)	0.147 µM (active)	0.146 µM (active)	0.188 µM (active)	0.0512 µM (active)	0.327 µM (active)	0.282 µM (active)	0.211 µM (active)	0.305 µM (active)	0.234 µM (active)	0.158 µM (active)	2.07 µM (inactive)	0.802 µM (active)	0.187 µM (active)	0.104 µM (active)	0.221 µM (active)	0.263 µM (active)	0.182 µM (active)	0.189 µM (active)	0.213 µM (active)
O=[N+]([O-])c1ccc(C2CC(c3ccccc3Cl)=Nc3ccccc3[S+]2[O-])cc1 (stereo not given)	4.13 µM (inactive)	2.92 µM (inactive)	2.01 µM (inactive)	5.41 µM (inactive)	1.88 µM (inactive)	5.18 µM (inactive)	15.5 µM (inactive)	1.8 µM (inactive)	19.8 µM (inactive)	3.63 µM (inactive)	2.26 µM (inactive)	15.3 µM (inactive)	1.98 µM (inactive)	9.91 µM (inactive)	2.06 µM (inactive)	2.31 µM (inactive)	12.8 µM (inactive)	5.86 µM (inactive)	2.34 µM (inactive)	3.48 µM (inactive)
